Reference: ChEMBL document CHEMBL1201862, “PubChem BioAssay data set” (2004)
Activity calls are given as the source filed them.

Columns and labels:
[1] = target: Eukaryotic translation initiation factor 4E (Mus musculus, UniProt P63073); assay: eIF4E–eIF4G protein interaction inhibitors, dose response, biochemical, TR-FRET (AID 855); type: functional;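 also: potency for disrupting eIF4E binding to eIF4GI seen as loss of FRET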
Protein Tat = target: T1, Protein Tat (Human immunodeficiency virus type 1 group M subtype B (isolate HXB2)(HIV-1), UniProt P04608); type: functional;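 also: tat binding to TAR RNA read out by fluorescence polarization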
T1 sequence (P04608 whole entry): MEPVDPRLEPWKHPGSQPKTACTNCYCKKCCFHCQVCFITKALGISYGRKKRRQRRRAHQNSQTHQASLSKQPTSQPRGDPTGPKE

[2] = THP-1 cell cytotoxicity, dose response, cytotoxicity control for Vif-APOBEC3G degradation inhibitor project, THP-1 cells (AID 1117359); type: functional; settings: Human immunodeficiency virus 1, THP-1
[3] = cytotoxicity in HEK-293T cells, dose response, cytotoxicity control for BCR NF-kB inhibitor project, luminescence, B-cell screen hits (AID 489021); type: functional, cell-based;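 also: HEK-293T cells carrying an NF-kB luciferase reporter; cells exposed to compound for about 14 hours before viability readout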
INS1 = assay: beta cell apoptosis inhibitors, cytokine rescue, dose response, luminescence, retest (AID 449756); type: functional, cell-based; settings: Rattus norvegicus;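 also: cell death triggered by IL-1 beta plus TNF-alpha plus IFN-gamma mixture; protective hits raise ATP signal compared with cytokine alone wells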
[4] = Shn3 3'UTR reporter inhibitors, dose response, cell-based, Clone20 osteoblasts, firefly luciferase, cherry-picked (AID 624132); type: functional;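 also: firefly luciferase luminescence from reporter carrying the Shn3 3'UTR in osteoblasts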
[5] = HepG2 cell cytotoxicity, dose response, cytotoxicity control for Shn3 inhibitor project, CellTiter-Glo, cherry-picked (AID 624134); type: functional, cell-based
[6] = control 3'UTR Renilla luciferase suppression, dose response, counter-screen for Shn3 inhibitor project, cell-based, Clone20-Shn3RL, cherry-picked (AID 624133); type: functional
[7] = target: Peroxisome proliferator-activated receptor gamma/Nuclear receptor coactivator 1 (Homo sapiens, UniProt P37231); assay: (§1) TR-FRET dose response biochemical High Throughput Screening assay for agonists of the steroid receptor coactivator 1 (SRC-1) recruitment by the peroxisome proliferator-activated receptor gamma (PPAR gamma): non-selective agonists. [Related pubchem assays (depositor defined):AID1300, AID1808, AID504735, AID631]; type: protein assay
[8] = target: Peroxisome proliferator-activated receptor gamma/Nuclear receptor coactivator 3 (Homo sapiens, UniProt P37231); assay: as §1, with “3 (SRC-3)” for “1 (SRC-1)”, “assays: 1301 (Confirmation screen.), 1048 (Primary screen.)]” for “assays (depositor defined):AID1300, AID1808, AID504735, AID631]”; type: functional
[9] = target: Peroxisome proliferator-activated receptor gamma/Nuclear receptor coactivator 2 (Homo sapiens, UniProt P37231); assay: TR-FRET dose response biochemical High Throughput Screening assay for agonists of the steroid receptor coactivator 2 (SRC-2) recruitment by the peroxisome proliferator-activated receptor gamma (PPAR gamma): non-selective agonists. [Related pubchem assays: 1297, 1032 ]; type: functional
Chain of Peroxisome proliferator-activated receptor gamma/Nuclear receptor coactivator 2 (P37231 whole entry, the tested form may be a part): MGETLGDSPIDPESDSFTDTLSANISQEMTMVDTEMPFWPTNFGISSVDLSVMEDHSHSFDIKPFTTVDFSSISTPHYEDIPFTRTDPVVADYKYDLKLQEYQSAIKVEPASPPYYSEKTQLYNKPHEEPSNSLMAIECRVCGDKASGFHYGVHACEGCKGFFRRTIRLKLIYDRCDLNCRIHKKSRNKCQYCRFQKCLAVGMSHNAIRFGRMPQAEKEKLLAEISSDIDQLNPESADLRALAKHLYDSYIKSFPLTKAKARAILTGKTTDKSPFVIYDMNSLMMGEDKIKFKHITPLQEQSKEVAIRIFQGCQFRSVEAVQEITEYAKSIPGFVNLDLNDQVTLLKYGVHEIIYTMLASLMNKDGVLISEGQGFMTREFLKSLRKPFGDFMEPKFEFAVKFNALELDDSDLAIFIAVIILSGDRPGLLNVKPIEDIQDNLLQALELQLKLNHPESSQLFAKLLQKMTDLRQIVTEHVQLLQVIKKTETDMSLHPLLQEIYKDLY
Chain of Peroxisome proliferator-activated receptor gamma/Nuclear receptor coactivator 2 (Q15596 whole entry, further chain, the tested form may be a part): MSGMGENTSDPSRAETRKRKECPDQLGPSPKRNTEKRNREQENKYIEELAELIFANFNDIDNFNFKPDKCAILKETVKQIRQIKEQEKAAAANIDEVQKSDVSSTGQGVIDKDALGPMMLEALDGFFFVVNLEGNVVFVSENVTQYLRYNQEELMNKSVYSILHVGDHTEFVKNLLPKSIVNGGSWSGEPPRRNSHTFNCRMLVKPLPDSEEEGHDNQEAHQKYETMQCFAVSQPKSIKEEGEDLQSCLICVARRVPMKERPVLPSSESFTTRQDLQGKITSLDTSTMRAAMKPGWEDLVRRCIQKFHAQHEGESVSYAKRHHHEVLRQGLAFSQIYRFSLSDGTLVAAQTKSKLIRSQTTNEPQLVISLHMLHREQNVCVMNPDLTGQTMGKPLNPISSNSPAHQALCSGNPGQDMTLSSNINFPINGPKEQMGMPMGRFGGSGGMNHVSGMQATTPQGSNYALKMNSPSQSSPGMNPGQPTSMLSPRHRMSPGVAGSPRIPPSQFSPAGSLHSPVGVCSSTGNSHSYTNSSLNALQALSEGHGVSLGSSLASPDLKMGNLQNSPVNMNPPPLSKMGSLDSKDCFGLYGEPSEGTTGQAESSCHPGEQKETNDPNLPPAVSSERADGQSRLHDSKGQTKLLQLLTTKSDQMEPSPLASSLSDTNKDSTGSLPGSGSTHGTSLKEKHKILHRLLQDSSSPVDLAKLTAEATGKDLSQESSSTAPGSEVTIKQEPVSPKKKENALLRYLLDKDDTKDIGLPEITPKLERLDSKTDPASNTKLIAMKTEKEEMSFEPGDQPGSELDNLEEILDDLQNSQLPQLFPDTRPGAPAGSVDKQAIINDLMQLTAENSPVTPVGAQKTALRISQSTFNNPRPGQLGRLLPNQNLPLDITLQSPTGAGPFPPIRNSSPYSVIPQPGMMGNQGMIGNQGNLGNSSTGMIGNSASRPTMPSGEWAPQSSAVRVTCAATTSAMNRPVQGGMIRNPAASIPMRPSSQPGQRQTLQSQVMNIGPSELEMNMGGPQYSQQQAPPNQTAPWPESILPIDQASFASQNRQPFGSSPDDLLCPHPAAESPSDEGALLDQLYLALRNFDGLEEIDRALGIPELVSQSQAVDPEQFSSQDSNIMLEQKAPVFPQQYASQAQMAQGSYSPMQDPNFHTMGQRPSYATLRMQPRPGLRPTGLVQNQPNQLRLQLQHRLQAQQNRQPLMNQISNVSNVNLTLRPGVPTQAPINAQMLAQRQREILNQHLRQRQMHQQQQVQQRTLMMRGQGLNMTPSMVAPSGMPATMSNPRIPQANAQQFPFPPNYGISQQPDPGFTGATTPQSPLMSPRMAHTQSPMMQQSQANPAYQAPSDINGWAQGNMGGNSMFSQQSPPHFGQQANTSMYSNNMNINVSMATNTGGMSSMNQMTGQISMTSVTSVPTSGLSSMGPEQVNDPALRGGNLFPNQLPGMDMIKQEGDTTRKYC

[10] = target: T2, Oxysterols receptor LXR-beta (Homo sapiens, UniProt P55055); type: functional, cell-based;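 also: agonist activity at LXR measured by a cell-based luminescence readout across a dose range, run as a counterscreen for daf-12 agonists; HEK293 cells with Gal4-LXR fusion and GAL4-driven luciferase reporter; potency for activation of Gal4-LXR reporter so compounds are agonists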
T2 sequence (P55055 whole entry): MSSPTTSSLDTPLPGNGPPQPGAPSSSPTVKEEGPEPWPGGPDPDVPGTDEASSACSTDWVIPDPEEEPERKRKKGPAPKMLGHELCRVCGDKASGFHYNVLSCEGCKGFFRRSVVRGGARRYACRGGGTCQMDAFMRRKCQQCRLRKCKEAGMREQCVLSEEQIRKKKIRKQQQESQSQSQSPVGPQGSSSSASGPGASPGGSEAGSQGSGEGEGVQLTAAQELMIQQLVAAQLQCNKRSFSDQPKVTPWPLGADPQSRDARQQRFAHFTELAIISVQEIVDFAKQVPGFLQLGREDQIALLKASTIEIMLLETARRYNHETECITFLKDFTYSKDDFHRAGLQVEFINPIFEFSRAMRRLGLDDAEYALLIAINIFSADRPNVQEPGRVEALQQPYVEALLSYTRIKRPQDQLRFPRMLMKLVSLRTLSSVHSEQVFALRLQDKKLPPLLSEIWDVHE

Fatty acid synthase [11] = target: T3, Fatty acid synthase (Homo sapiens, UniProt P49327); assay: FAS thioesterase domain inhibitors, dose response, biochemical, endpoint fluorescence intensity, uHTS hits (AID 624327); type: functional;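 also: fluorescence from hydrolysis of an O-methyl fluorescein acyl ester substrate by the enzyme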
T3 sequence (P49327 whole entry, the tested form may be a part): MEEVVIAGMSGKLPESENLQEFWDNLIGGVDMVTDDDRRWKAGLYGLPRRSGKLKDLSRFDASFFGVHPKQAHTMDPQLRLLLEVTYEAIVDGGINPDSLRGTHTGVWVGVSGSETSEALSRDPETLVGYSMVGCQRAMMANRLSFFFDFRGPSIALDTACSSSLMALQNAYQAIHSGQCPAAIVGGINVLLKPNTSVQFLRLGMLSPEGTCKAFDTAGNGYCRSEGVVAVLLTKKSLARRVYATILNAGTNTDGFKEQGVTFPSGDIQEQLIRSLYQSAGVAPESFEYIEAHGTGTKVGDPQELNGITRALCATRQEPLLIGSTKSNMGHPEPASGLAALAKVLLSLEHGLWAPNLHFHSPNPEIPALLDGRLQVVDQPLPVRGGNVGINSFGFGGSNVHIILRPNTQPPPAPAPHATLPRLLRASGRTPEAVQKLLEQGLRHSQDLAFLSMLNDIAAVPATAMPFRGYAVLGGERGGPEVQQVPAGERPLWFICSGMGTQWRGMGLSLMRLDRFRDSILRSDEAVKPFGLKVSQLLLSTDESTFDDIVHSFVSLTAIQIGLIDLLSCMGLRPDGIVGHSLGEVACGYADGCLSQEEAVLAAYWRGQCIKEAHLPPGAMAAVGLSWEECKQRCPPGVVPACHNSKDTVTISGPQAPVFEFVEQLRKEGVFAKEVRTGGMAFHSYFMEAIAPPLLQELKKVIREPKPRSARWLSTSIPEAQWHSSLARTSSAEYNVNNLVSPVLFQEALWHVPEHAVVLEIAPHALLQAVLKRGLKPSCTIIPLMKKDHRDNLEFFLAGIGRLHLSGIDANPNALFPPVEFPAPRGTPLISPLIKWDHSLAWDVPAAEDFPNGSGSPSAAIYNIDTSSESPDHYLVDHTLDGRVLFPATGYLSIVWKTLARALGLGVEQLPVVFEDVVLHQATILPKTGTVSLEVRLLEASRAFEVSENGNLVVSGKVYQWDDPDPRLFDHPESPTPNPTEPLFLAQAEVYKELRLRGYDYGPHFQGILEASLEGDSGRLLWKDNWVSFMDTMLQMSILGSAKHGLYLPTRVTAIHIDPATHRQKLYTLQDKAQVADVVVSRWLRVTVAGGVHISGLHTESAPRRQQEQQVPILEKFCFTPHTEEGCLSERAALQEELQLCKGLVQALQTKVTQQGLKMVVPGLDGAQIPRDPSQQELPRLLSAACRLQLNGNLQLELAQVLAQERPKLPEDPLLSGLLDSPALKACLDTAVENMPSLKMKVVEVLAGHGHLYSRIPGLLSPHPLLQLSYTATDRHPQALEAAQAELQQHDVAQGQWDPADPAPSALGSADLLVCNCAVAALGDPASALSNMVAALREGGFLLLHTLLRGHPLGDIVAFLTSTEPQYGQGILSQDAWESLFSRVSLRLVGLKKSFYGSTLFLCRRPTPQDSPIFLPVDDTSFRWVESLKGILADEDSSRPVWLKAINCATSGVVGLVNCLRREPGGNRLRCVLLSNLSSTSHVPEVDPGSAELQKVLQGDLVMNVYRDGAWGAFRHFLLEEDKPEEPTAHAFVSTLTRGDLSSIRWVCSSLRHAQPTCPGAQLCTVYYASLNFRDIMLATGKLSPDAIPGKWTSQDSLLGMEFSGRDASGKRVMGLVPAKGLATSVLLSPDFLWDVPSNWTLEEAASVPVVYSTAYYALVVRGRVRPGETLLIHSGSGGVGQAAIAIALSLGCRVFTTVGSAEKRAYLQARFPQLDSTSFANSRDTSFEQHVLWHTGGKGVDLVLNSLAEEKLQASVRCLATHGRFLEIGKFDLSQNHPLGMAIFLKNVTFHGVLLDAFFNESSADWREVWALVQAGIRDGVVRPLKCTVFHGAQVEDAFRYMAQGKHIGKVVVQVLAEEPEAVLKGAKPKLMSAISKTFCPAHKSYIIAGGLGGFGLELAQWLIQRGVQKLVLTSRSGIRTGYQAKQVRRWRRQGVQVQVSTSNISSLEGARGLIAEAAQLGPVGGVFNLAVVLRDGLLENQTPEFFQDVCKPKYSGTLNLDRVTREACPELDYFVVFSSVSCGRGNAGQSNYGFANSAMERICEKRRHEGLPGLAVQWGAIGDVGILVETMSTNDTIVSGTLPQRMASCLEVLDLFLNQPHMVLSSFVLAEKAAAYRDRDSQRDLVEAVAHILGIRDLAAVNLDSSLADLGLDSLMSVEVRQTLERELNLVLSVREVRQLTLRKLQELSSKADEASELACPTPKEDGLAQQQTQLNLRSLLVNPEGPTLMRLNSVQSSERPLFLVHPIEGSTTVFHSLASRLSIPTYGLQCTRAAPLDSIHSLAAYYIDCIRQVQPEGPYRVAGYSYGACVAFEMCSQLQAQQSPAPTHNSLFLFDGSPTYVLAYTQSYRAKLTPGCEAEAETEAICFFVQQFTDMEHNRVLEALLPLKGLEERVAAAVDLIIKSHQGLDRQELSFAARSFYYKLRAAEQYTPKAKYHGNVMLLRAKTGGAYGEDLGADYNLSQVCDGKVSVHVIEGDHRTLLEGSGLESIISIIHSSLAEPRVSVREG

Fatty acid synthase [12] = target: T3, Fatty acid synthase; assay: FAS thioesterase domain inhibitors, dose response, biochemical, kinetic fluorescence intensity (AID 624326); type: functional;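 also: rate of fluorescence rise from hydrolysis of a fluorogenic O-methyl fluorescein ester substrate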
[13] = target: T4, Endoribonuclease toxin MazF (Escherichia coli K-12, UniProt P0AE70); assay: MazF toxin RNase activators, dose response, biochemical, fluorescence, single-stranded RNA substrate, uHTS hits (AID 588481); type: functional
T4 sequence (P0AE70 whole entry): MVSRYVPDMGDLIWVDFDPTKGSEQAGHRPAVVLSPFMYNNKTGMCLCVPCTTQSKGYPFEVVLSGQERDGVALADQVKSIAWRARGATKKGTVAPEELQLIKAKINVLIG

[14] = target: T4, Endoribonuclease toxin MazF; assay: fluorescent RNA oligo signal without MazF, dose response, counter-screen for MazEF activator project, biochemical, fluorescence, single-stranded RNase substrate (AID 588502); type: functional
fMet-Leu-Phe receptor = target: T5, fMet-Leu-Phe receptor (Homo sapiens, UniProt P21462); assay: FPR ligands, dose response (AID 519); type: functional
T5 sequence (P21462 whole entry): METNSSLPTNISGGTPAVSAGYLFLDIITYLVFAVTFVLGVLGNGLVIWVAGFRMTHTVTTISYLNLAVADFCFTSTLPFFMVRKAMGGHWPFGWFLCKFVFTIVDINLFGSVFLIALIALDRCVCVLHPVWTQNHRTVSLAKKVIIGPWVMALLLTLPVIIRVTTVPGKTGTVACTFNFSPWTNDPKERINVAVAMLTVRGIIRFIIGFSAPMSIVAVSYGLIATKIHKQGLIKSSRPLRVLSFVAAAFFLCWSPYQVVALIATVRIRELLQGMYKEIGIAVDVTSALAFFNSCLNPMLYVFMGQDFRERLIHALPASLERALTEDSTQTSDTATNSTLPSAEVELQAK

H9c2 = assay: cells; type: functional, cell-based; settings: Rattus norvegicus, H9c2, Myocardium;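 also: confirmatory concentration-response retest of ultra-high-throughput screening hits for modulation of myocardial damage; cell death induced by hydrogen peroxide oxidative stress; compound pretreatment for 60 min then peroxide exposure for 2 h; potency is for protecting the cells against peroxide damage rather than for killing them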
[15] = THP-1 cell cytotoxicity, dose response, cytotoxicity control for non-replicating M. tuberculosis project (AID 489025); type: functional

Chain of Eukaryotic translation initiation factor 4E (P63073 whole entry): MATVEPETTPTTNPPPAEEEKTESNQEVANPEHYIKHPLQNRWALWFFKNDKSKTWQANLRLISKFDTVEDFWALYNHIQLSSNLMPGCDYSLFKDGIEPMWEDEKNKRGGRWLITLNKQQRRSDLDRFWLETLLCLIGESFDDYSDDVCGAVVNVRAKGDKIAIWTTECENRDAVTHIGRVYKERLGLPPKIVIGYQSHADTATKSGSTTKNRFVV

In the case of `COc1cc(CN(C(=O)c2ccco2)c2ccc(C)cc2)ccc1O`, the IC50 [1] is reported as > 64 µM (inactive), the IC50 (Protein Tat) is reported as 9.05 µM (inconclusive) and the CC50 [2] is reported as > 40 µM (active).

In the case of `O=C(Nc1cccc(S(=O)(=O)Nc2ccc(Cl)cc2)c1)c1ccc(Cl)nc1`, the IC50 [3] is reported as 49.5 µM (inactive), the AC50 (INS1) is reported as 3.31 µM (active) and the AC50 [4] is reported as 0.606 µM (active). The AC50 [5] was 2.63 µM (active) and the AC50 [6] was 11.7 µM (active).

With `O=C(NN1C(=O)/C(=C/c2nc3ccccc3[nH]2)SC1=S)c1ccccc1Cl` the EC50 [7] was 25.8 µM (inactive), the EC50 [8] was > 79.4 µM (not active) and the EC50 [9] was 44.5 µM (not active).

In the case of `CC(C)CC(=O)NC(=S)Nc1cccc2nsnc12`, the EC50 [7] is reported as 1.81 µM (active), the EC50 [8] is reported as 7.93 µM (active) and the EC50 [9] is reported as 2.92 µM (active).

For `Cc1ccc(C(=N)NOC(=O)c2ccco2)cc1`, the EC50 [10] was > 67.5 µM (inactive).

For `Cc1nc2ccc([N+](=O)[O-])cc2c(=O)n1Cc1ccc([N+](=O)[O-])cc1`, the IC50 (Fatty acid synthase [11]) was 9.22 µM (active) and the IC50 (Fatty acid synthase [12]) was 8.3 µM (active).

With `Cc1c(CCC(=O)O)c(=O)oc2cc3oc4c(c3cc12)CCCC4` the IC50 [3] was > 80 µM (inactive).

For `Cc1ccc(S(=O)(=O)N[N-][C+]2CCC(C(C)(C)C)CC2)cc1[N+](=O)[O-]`, the IC50 (Fatty acid synthase [11]) was 53 µM (inactive) and the IC50 (Fatty acid synthase [12]) was 80 µM (inactive).

With `COC(=O)c1sc2nc(SCc3cccc(F)c3)n(N)c(=O)c2c1C` the EC50 [13] was > 99 µM (inactive) and the EC50 [14] was > 99 µM (inactive).

With `CC1=C(C(=O)OC(C)C)[C@]2(C(=O)N(CC(N)=O)c3ccccc32)C(C#N)=C(N)O1` the Ki (fMet-Leu-Phe receptor) was > 66.7 µM (inactive).

In the case of `CCOC(=O)c1cc(NC(=O)C2C3CCC(O3)C2C(=O)O)cc(C(=O)OCC)c1` (stereo not drawn), the Ki (fMet-Leu-Phe receptor) is reported as > 66.7 µM (inactive).

For `Nc1nc(-c2c[nH]c3ccccc23)cs1`, the EC50 [7] was > 26.5 µM (inactive), the EC50 [8] was > 79.4 µM (not active) and the EC50 [9] was 24.2 µM (not active). The IC50 (H9c2) was > 79 µM (inactive).

For `CC(C)(C)NCc1cc(Br)ccc1OCc1cccs1`, the CC50 [15] was > 40 µM (active).

In the case of `COc1ccc(-c2cc(C(F)(F)F)nc(N3CCN(Cc4ccccc4)CC3)n2)cc1OC`, the Ki (fMet-Leu-Phe receptor) is reported as > 66.7 µM (inactive).

For `CC(C)Sc1ncnc2c1oc1ccccc12`, the EC50 [7] was 39.2 µM (inactive), the EC50 [8] was > 79.4 µM (not active) and the EC50 [9] was 26.2 µM (not active).
